This note sets out measurements from patent publication US12612412B2, “Antiviral heterocyclic compounds” (Enanta Pharmaceuticals, Inc., priority 2021, dated 2026).

Bounds are passed on as bounds.

For this assay, the system named is genotype A, "Long" strain RSV. The experiment in a line: RSV-A assay (CPE protection in Hep-2 cells, ATPlite readout). It counts as cell-based, Human respiratory syncytial virus (HRSV). The settings on record: human respiratory syncytial virus, genotype A “Long” strain RSV, MOI 0.1, CPE protection, read-out: Human RSV-A (“Long”). In short, it runs like this:
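Hep-2, 8,000 cells/well, MOI 0.1 (PFU- or TCID50-based); 2-fold compound series, duplicates; 5 d incubation; ATPlite luminescence readout; EC50.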
A general note: ATP-based viability assays read luminescence as a measure of living cells.

In the case of `Cc1oncc1C(=O)NC[C@](O)(c1cc2c(c(-c3ccc(F)cc3)n1)OC[C@]2(C)C(N)=O)C(F)(F)F` [Example 356], the EC50 was more than 200 nM.
`C[C@]1(C(N)=O)COc2c1cc([C@@](O)(CNC(=O)c1ccc3sccc3c1)C(F)(F)F)nc2-c1ccc(F)cc1` [Example 357]: the EC50 was more than 200 nM.
For the compound `Cc1ccn2ncc(C(=O)NC[C@](O)(c3cc4c(c(-c5ccc(F)cc5)n3)OC[C@]4(C)C(N)=O)C(F)(F)F)c2n1` [Example 358], the EC50 was more than 200 nM.
As for `C[C@]1(C(N)=O)COc2c1cc([C@@](O)(CNC(=O)c1ccc3cc[nH]c3c1F)C(F)(F)F)nc2-c1ccc(F)cc1` [Example 359], the figure is more than 200 nM; as for `C[C@]1(C(N)=O)COc2c1cc([C@@](O)(CNC(=O)c1cccc3nccn13)C(F)(F)F)nc2-c1ccc(F)cc1` [Example 360], more than 200 nM.
The same measure for `Cc1ccn2c(C(=O)NC[C@](O)(c3cc4c(c(-c5ccc(F)cc5)n3)OC[C@]4(C)C(N)=O)C(F)(F)F)c(C)nc2c1` [Example 361]: more than 200 nM; for `Cc1cc[nH]c1C(=O)NC[C@](O)(c1cc2c(c(-c3ccc(F)cc3)n1)OC[C@]2(C)C(N)=O)C(F)(F)F` [Example 362]: more than 200 nM; for `C[C@]1(C(N)=O)COc2c1cc([C@@](O)(CNC(=O)c1ccoc1)C(F)(F)F)nc2-c1ccc(F)cc1` [Example 363]: more than 200 nM.
As for `C[C@]1(C(N)=O)COc2c1cc([C@@](O)(CNC(=O)c1ccno1)C(F)(F)F)nc2-c1ccc(F)cc1` [Example 364], the figure is more than 200 nM.
`C[C@]1(C(N)=O)COc2c1cc([C@@](O)(CNC(=O)c1cnc3[nH]cnc3c1)C(F)(F)F)nc2-c1ccc(F)cc1` [Example 365]: the EC50 is more than 200 nM.
As for `C[C@]1(C(N)=O)COc2c1cc([C@@](O)(CNC(=O)c1cccc3cc[nH]c13)C(F)(F)F)nc2-c1ccc(F)cc1` [Example 366], the figure is less than 200 nM; as for `C[C@]1(C(N)=O)COc2c1cc([C@@](O)(CNC(=O)c1cnc3ccc(F)cn13)C(F)(F)F)nc2-c1ccc(F)cc1` [Example 367], more than 200 nM.
The same measure for `C[C@]1(C(N)=O)COc2c1cc([C@@](O)(CNC(=O)c1cc3ccccc3s1)C(F)(F)F)nc2-c1ccc(F)cc1` [Example 368]: more than 200 nM.
The same measure for `C[C@]1(C(N)=O)COc2c1cc([C@@](O)(CNC(=O)c1ccnc3[nH]ccc13)C(F)(F)F)nc2-c1ccc(F)cc1` [Example 369]: less than 200 nM; for `C[C@]1(C(N)=O)COc2c1cc([C@@](O)(CNC(=O)c1cc3cnccc3[nH]1)C(F)(F)F)nc2-c1ccc(F)cc1` [Example 370]: less than 200 nM; for `C[C@]1(C(N)=O)COc2c1cc([C@@](O)(CNC(=O)c1cc3ncccc3s1)C(F)(F)F)nc2-c1ccc(F)cc1` [Example 371]: more than 200 nM.
With `C[C@]1(C(N)=O)COc2c1cc([C@@](O)(CNC(=O)c1cc(=O)[nH]c(C3CC3)n1)C(F)(F)F)nc2-c1ccc(F)cc1` [Example 372], the EC50 is more than 200 nM.
The same measure for `Cn1cc(C(=O)NC[C@](O)(c2cc3c(c(-c4ccc(F)cc4)n2)OC[C@]3(C)C(N)=O)C(F)(F)F)c2ccccc21` [Example 373]: more than 200 nM; for `C[C@]1(C(N)=O)COc2c1cc([C@@](O)(CNC(=O)c1cnc3nccn3c1)C(F)(F)F)nc2-c1ccc(F)cc1` [Example 374]: more than 200 nM.
As for `Cc1nc2cc(C(=O)NC[C@](O)(c3cc4c(c(-c5ccc(F)cc5)n3)OC[C@]4(C)C(N)=O)C(F)(F)F)ccc2o1` [Example 375], the figure is more than 200 nM; as for `C[C@]1(C(N)=O)COc2c1cc([C@@](O)(CNC(=O)c1csc3ccccc13)C(F)(F)F)nc2-c1ccc(F)cc1` [Example 376], more than 200 nM; as for `C[C@]1(C(N)=O)COc2c1cc([C@@](O)(CNC(=O)c1cc3cccnc3s1)C(F)(F)F)nc2-c1ccc(F)cc1` [Example 377], more than 200 nM.
The same measure for `C[C@]1(C(N)=O)COc2c1cc([C@@](O)(CNC(=O)c1cc3ccccc3o1)C(F)(F)F)nc2-c1ccc(F)cc1` [Example 378]: more than 200 nM.
Take `C[C@]1(C(N)=O)COc2c1cc([C@@](O)(CNC(=O)c1cc3cccc(F)c3s1)C(F)(F)F)nc2-c1ccc(F)cc1` [Example 379]: the EC50 was more than 200 nM.
For `C[C@]1(C(N)=O)COc2c1cc([C@@](O)(CNC(=O)c1cnc3[nH]ccc3c1)C(F)(F)F)nc2-c1ccc(F)cc1` [Example 380], the EC50 is less than 200 nM.
The same measure for `Cc1cc(C(=O)NC[C@](O)(c2cc3c(c(-c4ccc(F)cc4)n2)OC[C@]3(C)C(N)=O)C(F)(F)F)no1` [Example 381]: more than 200 nM; for `C[C@]1(C(N)=O)COc2c1cc([C@@](O)(CNC(=O)c1cccc3c1OCO3)C(F)(F)F)nc2-c1ccc(F)cc1` [Example 382]: more than 200 nM.
The same measure for `C[C@]1(C(N)=O)COc2c1cc([C@@](O)(CNC(=O)c1c[nH]c3cccnc13)C(F)(F)F)nc2-c1ccc(F)cc1` [Example 383]: more than 200 nM.
The same measure for `C[C@]1(C(N)=O)COc2c1cc([C@@](O)(CNC(=O)c1cc3cc[nH]c3cn1)C(F)(F)F)nc2-c1ccc(F)cc1` [Example 384]: more than 200 nM.
In the case of `Cc1ccc2cc(C(=O)NC[C@](O)(c3cc4c(c(-c5ccc(F)cc5)n3)OC[C@]4(C)C(N)=O)C(F)(F)F)[nH]c2c1` [Example 385], the EC50 is more than 200 nM.
As for `Cc1ccsc1C(=O)NC[C@](O)(c1cc2c(c(-c3ccc(F)cc3)n1)OC[C@]2(C)C(N)=O)C(F)(F)F` [Example 386], the figure is more than 200 nM.
As for `C[C@]1(C(N)=O)COc2c1cc([C@@](O)(CNC(=O)c1cc3[nH]ccc3cc1F)C(F)(F)F)nc2-c1ccc(F)cc1` [Example 387], the figure is more than 200 nM; as for `C[C@]1(C(N)=O)COc2c1cc([C@@](O)(CNC(=O)c1nccc3[nH]ccc13)C(F)(F)F)nc2-c1ccc(F)cc1` [Example 388], more than 200 nM; as for `C[C@]1(C(N)=O)COc2c1cc([C@@](O)(CNC(=O)c1cncs1)C(F)(F)F)nc2-c1ccc(F)cc1` [Example 389], more than 200 nM.
As for `Cc1cnc(C(=O)NC[C@](O)(c2cc3c(c(-c4ccc(F)cc4)n2)OC[C@]3(C)C(N)=O)C(F)(F)F)cn1` [Example 390], the figure is more than 200 nM.
In the case of `C[C@]1(C(N)=O)COc2c1cc([C@@](O)(CNC(=O)c1ccc[nH]1)C(F)(F)F)nc2-c1ccc(F)cc1` [Example 391], the EC50 is more than 200 nM.
The same measure for `C[C@]1(C(N)=O)COc2c1cc([C@@](O)(CNC(=O)c1cc3ccccn3n1)C(F)(F)F)nc2-c1ccc(F)cc1` [Example 392]: more than 200 nM; for `C[C@]1(C(N)=O)COc2c1cc([C@@](O)(CNC(=O)c1n[nH]c3ncccc13)C(F)(F)F)nc2-c1ccc(F)cc1` [Example 393]: more than 200 nM.
The same measure for `COc1ccc2nc(C(=O)NC[C@](O)(c3cc4c(c(-c5ccc(F)cc5)n3)OC[C@]4(C)C(N)=O)C(F)(F)F)sc2c1` [Example 394]: more than 200 nM; for `COc1cccc2[nH]nc(C(=O)NC[C@](O)(c3cc4c(c(-c5ccc(F)cc5)n3)OC[C@]4(C)C(N)=O)C(F)(F)F)c12` [Example 395]: more than 200 nM; for `C[C@]1(C(N)=O)COc2c1cc([C@@](O)(CNC(=O)c1nccs1)C(F)(F)F)nc2-c1ccc(F)cc1` [Example 396]: more than 200 nM.
Consider `C[C@]1(C(N)=O)COc2c1cc([C@@](O)(CNC(=O)c1n[nH]c3ccc(F)cc13)C(F)(F)F)nc2-c1ccc(F)cc1` [Example 397], for which the EC50 was more than 200 nM.
As for `Cc1ccc2nc(C(=O)NC[C@](O)(c3cc4c(c(-c5ccc(F)cc5)n3)OC[C@]4(C)C(N)=O)C(F)(F)F)cn2c1` [Example 398], the figure is more than 200 nM; as for `C[C@]1(C(N)=O)COc2c1cc([C@@](O)(CNC(=O)c1ccnc3ccccc13)C(F)(F)F)nc2-c1ccc(F)cc1` [Example 399], more than 200 nM.
As for `C[C@]1(C(N)=O)COc2c1cc([C@@](O)(CNC(=O)c1cc3cc[nH]c3cc1F)C(F)(F)F)nc2-c1ccc(F)cc1` [Example 400], the figure is more than 200 nM; as for `Cn1c(C(=O)NC[C@](O)(c2cc3c(c(-c4ccc(F)cc4)n2)OC[C@]3(C)C(N)=O)C(F)(F)F)cc2ccccc21` [Example 401], more than 200 nM.
With `C[C@]1(C(N)=O)COc2c1cc([C@@](O)(CNC(=O)c1ccn3ccnc3c1)C(F)(F)F)nc2-c1ccc(F)cc1` [Example 402], the EC50 is more than 200 nM.
As for `C[C@]1(C(N)=O)COc2c1cc([C@@](O)(CNC(=O)c1ccc3[nH]ncc3n1)C(F)(F)F)nc2-c1ccc(F)cc1` [Example 403], the figure is more than 200 nM.
As for `C[C@]1(C(N)=O)COc2c1cc([C@@](O)(CNC(=O)c1ccco1)C(F)(F)F)nc2-c1ccc(F)cc1` [Example 404], the figure is more than 200 nM; as for `C[C@]1(C(N)=O)COc2c1cc([C@@](O)(CNC(=O)c1nc3cc(F)ccc3[nH]1)C(F)(F)F)nc2-c1ccc(F)cc1` [Example 405], more than 200 nM; as for `C[C@]1(C(N)=O)COc2c1cc([C@@](O)(CNC(=O)c1ccnnc1)C(F)(F)F)nc2-c1ccc(F)cc1` [Example 406], more than 200 nM.
As for `Cn1ccc(C(=O)NC[C@](O)(c2cc3c(c(-c4ccc(F)cc4)n2)OC[C@]3(C)C(N)=O)C(F)(F)F)c1` [Example 407], the figure is more than 200 nM.
Turning to `C[C@]1(C(N)=O)COc2c1cc([C@@](O)(CNC(=O)c1ccc(C(F)F)nc1)C(F)(F)F)nc2-c1ccc(F)cc1` [Example 408], the EC50 is more than 200 nM.
The same measure for `C[C@]1(C(N)=O)COc2c1cc([C@@](O)(CNC(=O)c1cnc3cccnn13)C(F)(F)F)nc2-c1ccc(F)cc1` [Example 409]: more than 200 nM.
The same measure for `Cc1cncnc1C(=O)NC[C@](O)(c1cc2c(c(-c3ccc(F)cc3)n1)OC[C@]2(C)C(N)=O)C(F)(F)F` [Example 410]: more than 200 nM; for `Cn1ccc(C(=O)NC[C@](O)(c2cc3c(c(-c4ccc(F)cc4)n2)OC[C@]3(C)C(N)=O)C(F)(F)F)n1` [Example 411]: more than 200 nM.
